# Experimental data: patent publication EP2197879B1, “C7-SUBSTITUTED CAMPTOTHECIN ANALOGS” (priority 2007, dated 2009)
# Where two headings read alike, the source gives them in different places.
# Assays:
# A2780/DX5 cells = assay: Sulforhodamine B (SRB) cytotoxicity assay in A2780/DX5 cells; assay type: cell-based; conditions: for IC50 Ratio: A2780/DX5 versus A2780/WT
# Method: (§1) Each of the testing conditions used in this study in both A2780/WT (wild-type) and A2780/DX5 cells were repeated in five to fifteen experiments that were performed on separate days. Each experiment consisted of one microtiter plate with at least eight individual assays of a given drug treatment condition on the plate. The sulforhodamine B (SRB) assay was used to assess cytotoxicity and absorbance at 570 nm (A570) in order to calculate the percentage of cell control (or percent cell survival) for the various treatment conditions in the plate wells.
# (§2) Roswell Park Memorial Institute (RPMI 1640) medium, fetal bovine serum (FBS), and L-glutamine were purchased from Gibco BRL. Drugs were dissolved in sterile dimethylsulfoxide (DMSO), from American Type Culture Collection (ATCC) for stock solutions (2.5 to 5.0 mM). Subsequent dilutions were made using cell culture medium (prior to adding the drug to cells). SRB was purchased from Sigma and dissolved in 1.0 percent acetic acid. Trichloroacetic acid was purchased from VWR International.
# (§3) Cells were manipulated in a Class IIA/B3 Biological Safety Cabinet (Forma Scientific) and maintained at 37°C in a humidified atmosphere containing 5% CO2 in a water-jacketed cell culture incubator (Forma Scientific). Cells were counted using a Coulter-Z1 counter (Beckman-Coulter). Following drug treatment, plates were washed using a Biomek 2000 station (Beckman) and, following exposure to SRB dye, plates were washed using an automated plate washer (Model EL404, Bio-Tek Instruments). Percentage of control was correlated to A570 values and determined using a Model EL800 plate reader (Bio-Tek Instruments).
# (§4) Population doubling times for the two cell lines used in this study encompassed a total of five cell doublings corresponding to approximately 5 days for A2780/WT and A2780/DX5 cells. A2780/WT and A2780/DX5 cells were cultured in RPMI 1640 medium supplemented with 10% fetal bovine serum and 1 mM of L-glutamine. Both cell lines were maintained as monolayered cultures in T-25 or T-75 flasks and then seeded to microtiter plate wells for experiments described herein. Prior to SRB assays, cell viability was monitored by evaluation of microtiter plate wells. Dead cells detach and float while living cells remain attached to the bottom of the cell well.
# (§5) The sulforhodamine B (SRB) cytotoxicity assay (see, Skehan P, et al., New colorimetric cytotoxicity assay for anticancer-drug screening. J. Natl. Cancer Inst. 82:1107-1112 (1990)) was used to determine the cytotoxic effects of BNP1350, SN-38, topotecan, 9-NH2-CPT, and 9-NO2-CPT on cell growth in vitro. Briefly, after the medium was aspirated from individual plate wells, trichloroacetic acid (100 µL of 10.0% solution) was added to each well, and the plates were incubated at 4°C for at least 1 hour. The plates were washed five-times with water using an automated microplate washer (Model EL 404, Bio-Tek Instruments), SRB solution (100 µL of 0.4 grams SRB dissolved in 100 mL 1.0 percent acetic acid) was added, and plates remained at room temperature for 15 minutes. The plates were then washed five-times using acetic acid (1.0%), air dried, and bound dye was solubilized in Tris base (150 µL, 10 mM). Plates were agitated (gently) for 5 minutes and the absorbance values of the SRB dye-protein adduct at a 570 nm wavelength (A570) were determined using an automated microtiter plate reader equipped with an A570 filter (Model EL800, BioTek Instruments). Table VII. Summary of Cytotoxicity Experiments in A2780/WT and DX5 Cells
# [1] = test system: A2780/WT (wild-type) cells; assay: Sulforhodamine B (SRB) cytotoxicity assay in A2780/WT cells; assay type: cell-based
# Method: as §1, §2, §3, §4, §5
# [2] = Homo sapiens, A2780, read-out: A2780/ DX5 (IC50)
# [3] = Homo sapiens, A2780, read-out: A2780/ WT (IC50)
# [4] = SRB assay, A2780/DX5 cells, read-out: A2780/ DX5 (IC50)
# [5] = SRB assay, A2780/WT cells, read-out: A2780/ WT (IC50)
SMILES,IC50 Ratio (A2780/DX5 cells),IC50 (A2780/DX5 cells; [2]),"IC50 [1, 3]",IC50 (A2780/DX5 cells; [4]),"IC50 [1, 5]","IC50 ([1]; Homo sapiens, SRB assay, A2780/WT cells, read-out: A2780/ WT (IC50))"
"CC[C@@]1(O)C(=O)OCc2c1cc1n(c2=O)Cc2c-1nc1ccccc1c2CC[Si](C)(C)CI [Compound 4, 11-(4S)-[2-(iodomethyldimethylsilanyl)-ethyl]-4-ethyl-4-hydroxy-1,12-dihydro-4H-2-oxa-6,12a-diaza-dibenzo[b,h]fluorene-3,13-dione]",1.72,27 nM,15.7 nM,–,–,–
"CC[C@@]1(O)C(=O)OCc2c1cc1n(c2=O)Cc2c-1nc1ccccc1c2CC[Si](C)(C)CO [Compound 7, (4S)-4-ethyl-4-hydroxy-11-[2-(hydroxymethyldimethylsilanyl)-ethyl]-1,12-dihydro-4H-2-oxa-6,12a-diaza-dibenzo[b,h]fluorene-3,13-dione]",4.2,40.3 nM,9.6 nM,–,–,–
"CC[C@@]1(O)C(=O)OCc2c1cc1n(c2=O)Cc2c-1nc1ccccc1c2CC[Si](C)(C)CSC[C@H](NC(=O)OC(C)(C)C)C(=O)OC [Compound 8, (2R, 4S)-2-tert-butoxycarbonylamino-3-({[2-(4-ethyl-4-hydroxy-3,13-dioxo-3,4,12,13-tetrahydro-1H-2-oxa-6,12a-diaza-dibenzo[b,h]fluoren-11-yl)-ethyl]-dimethyl-silanyl}-methylsulfanyl)-propionic acid methyl ester]",2.77,110 nM,39.8 nM,–,–,–
"CCC1(O)C(=O)OCc2c1cc1n(c2=O)Cc2c-1nc1ccccc1c2CC[Si](C)(C)CSC(C)=O (stereo not drawn) [Compound 9, thioacetic acid S-({[2-(4-ethyl-4-hydroxy-3.13-dioxo-3,4,12,13-tetrahydro-1H-2-oxa-6,12a-diaza-dibenzo[b,h]fluoren-11-yl)-ethyl]-dimethylsilanyl} -methyl) ester]",1.94,–,–,125 nM,64.7 nM,–
"CC[C@@]1(O)C(=O)OCc2c1cc1n(c2=O)Cc2c-1nc1ccccc1c2CC[Si](C)(C)CCCS(=O)(=O)c1ccccc1 [Compound 13, (4S)-11-{2-[(3-benzenesulfonylaronyl)-dimethylsilanyl]-ethyl}-4-ethyl-4-hydroxy-1,12-dihydro-4H-2-oxa-6,12a-diaza-dibenzo[b,h]fluorene-3,13-dione]",6.3,–,–,53.5 nM,8.5 nM,–
"CC[C@@]1(O)C(=O)OCc2c1cc1n(c2=O)Cc2c-1nc1ccccc1c2CC[Si](C)(C)CCCn1ccnc1 [Compound 14, (4S)-4-ethyl-4-hydroxy-11-{2-[(3-imidazol-1-yl-propyl)-dimethyl-silanyl]-ethyl}-1,12-dihydro-4H-2-oxa-6,2a-diaza-dibenzo[b,h]fluorene-3,13-dione]",14.8,–,–,166 nM,11.2 nM,–
"CC[C@@]1(O)C(=O)OCc2c1cc1n(c2=O)Cc2c-1nc1ccccc1c2CC[Si](C)(C)CCCn1cncn1 [Compound 15, (4S)-11-{2-[dimethyl-(3-[1,2,4]triazol-1-yl-pronyl)-silanyl]-ethyl}-4-ethyl-4-hydroxy-1,12-dihydro-4H-2-oxa-6,12a-diaza-dibenzo[b,h]fluorene-3,13-dione]",6.9,–,–,62.4 nM,9 nM,–
"CC[C@@]1(O)C(=O)OCc2c1cc1n(c2=O)Cc2c-1nc1ccccc1c2CC[Si](C)(C)CCCN(C)C [Compound 16, (4S)-11-{2-[(3-dimethylaminopropyl)-dimethysilanyl]-ethyl}-4-ethyl-4-hydroxyl-1,12-dihydro-4H-2-oxa-6,12a-diaza-dibenzo[b,h]fluorene-3,13-dione]",21.7,–,–,512 nM,23.6 nM,–
"CC[C@@]1(O)C(=O)OCc2c1cc1n(c2=O)Cc2c-1nc1ccccc1c2CC[Si](C)(C)CCCn1ccccc1=O [Compound 17, (4S)-11-(2-{dimethyl-[3-(2-oxo-2H-pyridin-1-yl)-propyl]-silanyl}-ethyl)-4-ethyl-4-hydroxy-1,12-dihydro-4H-2-oxa-6,12a-diaza-dibenzo[b,h]fluorene-3,13-dione]",11.6,186 nM,16 nM,–,–,–
"CC[C@@]1(O)C(=O)OCc2c1cc1n(c2=O)Cc2c-1nc1ccccc1c2CC[Si](C)(C)CCCP(=O)(OC)OC [Compound 18, (4S)-(3-{[2-(4-ethyl-4-hydroxy-3,13-dioxo-3,4,12,13-tetrahydro-1H-2-oxa-6,12a-diaza-dibenzo[b,h]fluoren-11-yl)-ethyl]-dimethylsilanyl}-propyl)-phosphonic acid dimethyl ester]",11.7,687 nM,58.6 nM,–,–,–
"CC[C@@]1(O)C(=O)OCc2c1cc1n(c2=O)Cc2c-1nc1ccccc1c2CC[Si](C)(C)CCCNC(=O)C(F)(F)F [Compound 23, (4S)-N-(3-{[2-(4-ethyl-4-hydroxy-3,13-dioxo-3,4,12,13-tetrahydro-1H-2-oxa-6,12a-diaza-dibenzo[b,h]fluoren-11-yl)-ethyl]-dimethyl-silanyl}-propyl)-2,2,2-trifiuoro-acetamide]",3.3,–,–,55.8 nM,16.9 nM,–
"CC[C@@]1(O)C(=O)OCc2c1cc1n(c2=O)Cc2c-1nc1ccccc1c2CC[Si](C)(C)CCCNC(=O)Nc1ccccc1 [Compound 25, (4S)-1-(3-{[2-(4-ethyl-4-hydroxy-3,13-dioxo-3,14,12,13-tetrahydro-1H-2-oxa-6,12a-diaza-dibenzo[b,h]fluoren-11-yl)-ethyl]-dimethylsilanyl}-propyl)-3-phenylurea]",6.5,–,–,152 nM,23.4 nM,–
"CCN(CC)C(=O)NCCC[Si](C)(C)CCc1c2c(nc3ccccc13)-c1cc3c(c(=O)n1C2)COC(=O)[C@]3(O)CC [Compound 27, (4S)-1,1-diethyl-3-(3-{[2-(4-ethyl-4-hydroxy-3,13-dioxo-3,4,12,13-tetrahydro-1H-2-oxa-6,12a-diaza-dibenzo[b,h]fluoren-11-yl)-ethyl]-dimethyl-silanyl}-propyl)-urea]",7.21,470 nM,65.2 nM,–,–,–
"CC[C@@]1(O)C(=O)OCc2c1cc1n(c2=O)Cc2c-1nc1ccccc1c2CC[Si](C)(C)CCCNC(=O)N(C)C [Compound 29, (4S)-3-(3-{[2-(4-ethyl-4-hydroxy-3,13-dioxo-3,4,12,13-tetrahydro-1H-2-oxa-6,12a-diaza-dibenzo[b,h]fluoren-11-yl)-ethyl]-dimethylsilanyl}-propyl)-1,1-dimethylurea]",11.4,312 nM,27.5 nM,–,–,–
"CC[C@@]1(O)C(=O)OCc2c1cc1n(c2=O)Cc2c-1nc1ccccc1c2CC[Si](C)(C)Cn1ccccc1=O [Compound 31, (4S)-11-{2-[dimethyl-(2-oxo-2H-pyridin-1-ylmethyl)-silanyl]-ethyl}-4-ethyl-4-hydroxy-1,12-dihydro-4H-2-oxa-6,12a-diaza-dibenzo[b,h]fluorene-3,13-dione]",8.1,98.5 nM,12.1 nM,–,–,–
"CC[C@@]1(O)C(=O)OCc2c1cc1n(c2=O)Cc2c-1nc1ccccc1c2CC[Si](C)(C)CN1CCCC1 [Compound 32, (4S)-11-[2-(dimethyl-pyrrolidin-1-ylmethyl-silanyl)-ethyl]-4-ethyl-4-hydroxy-1,12-dihydro-4H-2-oxa-6,12a-diaza-dibenzo[b,h]fluorene-3,13-dione]",6.9,319 nM,–,–,–,46.4 nM
"CC[C@@]1(O)C(=O)OCc2c1cc1n(c2=O)Cc2c-1nc1ccccc1c2CC[Si](C)(C)CSc1nccn1C [Compound 33, (4S)-11-{2-[dimethyl-(1-methyl-1H-imidazol-2-ylsulfanylmethyl)-silanyl]-ethyl}-4-ethyl-4-hydroxy-1,12-dihydro-4H-2-oxa-6,12a-diaza-dibenzo[b,h]fluorene-3,13-dione]",6.0,57.8 nM,9.7 nM,–,–,–
